Laboratory results reported in PubChem BioAssay (NCI).
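Growth conditions: 96-well plates. Treatment: test compound, 48 hours, 5 concentrations. Analysis: linear interpolation between bracketing concentrations; unreached endpoints set to highest concentration. GI50: concentration for 50% inhibition of growth. Definition used: TGI = concentration required for complete inhibition of growth.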

Columns and labels:
Test in all cases: DTP human tumour cell line panel, 48 h
SNB-19 CNS = test system: SNB-19 CNS
HS 578T breast = test system: HS 578T breast
ACHN renal = test system: ACHN renal
CAKI-1 renal = test system: CAKI-1 renal
MDA-MB-231 breast = test system: MDA-MB-231 breast
HCC-2998 colon = test system: HCC-2998 colon
OVCAR-3 ovarian = test system: OVCAR-3 ovarian
SF-539 CNS = test system: SF-539 CNS
M14 melanoma = test system: M14 melanoma
SK-OV-3 ovarian = test system: SK-OV-3 ovarian
SNB-75 CNS = test system: SNB-75 CNS
RPMI-8226 leukemia = test system: RPMI-8226 leukemia
HL-60(TB) leukemia = test system: HL-60(TB) leukemia
DU-145 prostate = test system: DU-145 prostate
UACC-257 melanoma = test system: UACC-257 melanoma
MCF7 breast = test system: MCF7 breast
HOP-62 NSCLC = test system: HOP-62 NSCLC
OVCAR-4 ovarian = test system: OVCAR-4 ovarian
786-0 renal = test system: 786-0 renal
COLO 205 colon = test system: COLO 205 colon
KM12 colon = test system: KM12 colon
A498 renal = test system: A498 renal
HCT-116 colon = test system: HCT-116 colon
SK-MEL-28 melanoma = test system: SK-MEL-28 melanoma
SW-620 colon = test system: SW-620 colon
NCI-H23 lung = test system: NCI-H23 lung
RXF 393 renal = test system: RXF 393 renal
TK-10 renal = test system: TK-10 renal
PC-3 prostate = test system: PC-3 prostate
SF-268 CNS = test system: SF-268 CNS
NCI/ADR-RES ovarian = test system: NCI/ADR-RES ovarian
SK-MEL-5 melanoma = test system: SK-MEL-5 melanoma
CCRF-CEM leukemia = test system: CCRF-CEM leukemia
BT-549 breast = test system: BT-549 breast
A549 NSCLC = test system: A549 NSCLC
UACC-62 melanoma = test system: UACC-62 melanoma
K-562 leukemia = test system: K-562 leukemia
OVCAR-8 ovarian = test system: OVCAR-8 ovarian
SR leukemia = test system: SR leukemia
OVCAR-5 ovarian = test system: OVCAR-5 ovarian
HOP-92 NSCLC = test system: HOP-92 NSCLC
NCI-H460 lung = test system: NCI-H460 lung
SF-295 CNS = test system: SF-295 CNS
MALME-3M melanoma = test system: MALME-3M melanoma
U251 CNS = test system: U251 CNS
MOLT-4 leukemia = test system: MOLT-4 leukemia
LOX IMVI melanoma = test system: LOX IMVI melanoma
T-47D breast = test system: T-47D breast
EKVX NSCLC = test system: EKVX NSCLC
NCI-H226 lung = test system: NCI-H226 lung
SN12C renal = test system: SN12C renal
HCT-15 colon = test system: HCT-15 colon
HT29 colon = test system: HT29 colon
MDA-MB-435 = test system: MDA-MB-435
UO-31 renal = test system: UO-31 renal
SK-MEL-2 melanoma = test system: SK-MEL-2 melanoma
IGROV1 ovarian = test system: IGROV1 ovarian
NCI-H522 lung = test system: NCI-H522 lung

Work on `CCOC(=O)C1=C(C)N(c2ccc(OC)cc2)C2(O)C=CC(=O)C3C(=O)N(c4ccccc4)C(=O)C132` (centres undefined) yielded a GI50 (SNB-19 CNS) of 4.74 µM, a TGI (SNB-19 CNS) of 16.8 µM and a GI50 (HS 578T breast) of 3.89 µM. For the same compound, the TGI (HS 578T breast) was 29.9 µM, the GI50 (ACHN renal) was 1.94 µM and the TGI (ACHN renal) was 3.93 µM. The GI50 (CAKI-1 renal) was 3.52 µM, the TGI (CAKI-1 renal) was 10.1 µM and the GI50 (MDA-MB-231 breast) was 3.19 µM. For the same compound, the TGI (MDA-MB-231 breast) was 7.77 µM, the GI50 (HCC-2998 colon) was 1.71 µM and the TGI (HCC-2998 colon) was 3.19 µM. The GI50 (OVCAR-3 ovarian) was 1.89 µM, the TGI (OVCAR-3 ovarian) was 3.66 µM and the GI50 (SF-539 CNS) was 2.27 µM. For the same compound, the TGI (SF-539 CNS) was 5.6 µM, the GI50 (M14 melanoma) was 2.2 µM and the TGI (M14 melanoma) was 5.39 µM. It also gave a GI50 (SK-OV-3 ovarian) of 9.92 µM, a TGI (SK-OV-3 ovarian) of 21.7 µM and a GI50 (SNB-75 CNS) of 4.16 µM. The TGI (SNB-75 CNS) was 13.8 µM, the GI50 (RPMI-8226 leukemia) was 1.95 µM and the TGI (RPMI-8226 leukemia) was 5.15 µM. For the same compound, the GI50 (HL-60(TB) leukemia) was 2.34 µM, the TGI (HL-60(TB) leukemia) was 5.82 µM and the GI50 (DU-145 prostate) was 1.82 µM. It also gave a TGI (DU-145 prostate) of 4.7 µM, a GI50 (UACC-257 melanoma) of 2.78 µM and a TGI (UACC-257 melanoma) of 11 µM. It also gave a GI50 (MCF7 breast) of 2.6 µM, a TGI (MCF7 breast) of 11.1 µM and a GI50 (HOP-62 NSCLC) of 3.72 µM. For the same compound, the TGI (HOP-62 NSCLC) was 10.3 µM, the GI50 (OVCAR-4 ovarian) was 2.21 µM and the TGI (OVCAR-4 ovarian) was 5.89 µM. It also gave a GI50 (786-0 renal) of 2.28 µM, a TGI (786-0 renal) of 5.34 µM and a GI50 (COLO 205 colon) of 1.9 µM. The TGI (COLO 205 colon) was 3.83 µM, the GI50 (KM12 colon) was 1.84 µM and the TGI (KM12 colon) was 3.41 µM. It also gave a GI50 (A498 renal) of 11.4 µM, a TGI (A498 renal) of 23.5 µM and a GI50 (HCT-116 colon) of 1.17 µM. The TGI (HCT-116 colon) was 2.48 µM, the GI50 (SK-MEL-28 melanoma) was 1.86 µM and the TGI (SK-MEL-28 melanoma) was 4.29 µM. For the same compound, the GI50 (SW-620 colon) was 1.88 µM, the TGI (SW-620 colon) was 3.83 µM and the GI50 (NCI-H23 lung) was 2.34 µM. The TGI (NCI-H23 lung) was 6.66 µM, the GI50 (RXF 393 renal) was 1.81 µM and the TGI (RXF 393 renal) was 3.42 µM. The GI50 (TK-10 renal) was 3.48 µM, the TGI (TK-10 renal) was 9.05 µM and the GI50 (PC-3 prostate) was 2.89 µM. The TGI (PC-3 prostate) was 10.1 µM, the GI50 (SF-268 CNS) was 3.51 µM and the TGI (SF-268 CNS) was 18.4 µM. The GI50 (NCI/ADR-RES ovarian) was 3.57 µM, the TGI (NCI/ADR-RES ovarian) was 22.3 µM and the GI50 (SK-MEL-5 melanoma) was 1.51 µM. For the same compound, the TGI (SK-MEL-5 melanoma) was 3.05 µM, the GI50 (CCRF-CEM leukemia) was 1.67 µM and the TGI (CCRF-CEM leukemia) was 13 µM. For the same compound, the GI50 (BT-549 breast) was 1.93 µM, the TGI (BT-549 breast) was 4.15 µM and the GI50 (A549 NSCLC) was 3.29 µM. The TGI (A549 NSCLC) was 13 µM, the GI50 (UACC-62 melanoma) was 2.41 µM and the TGI (UACC-62 melanoma) was 5.47 µM. The GI50 (K-562 leukemia) was 2.68 µM, the TGI (K-562 leukemia) was greater than 100 µM and the GI50 (OVCAR-8 ovarian) was 3.58 µM. The TGI (OVCAR-8 ovarian) was 17.3 µM, the GI50 (SR leukemia) was 1.59 µM and the TGI (SR leukemia) was 5.26 µM. For the same compound, the GI50 (OVCAR-5 ovarian) was 4.08 µM, the TGI (OVCAR-5 ovarian) was 22.8 µM and the GI50 (HOP-92 NSCLC) was 2.78 µM. It also gave a TGI (HOP-92 NSCLC) of 7.97 µM, a GI50 (NCI-H460 lung) of 2.08 µM and a TGI (NCI-H460 lung) of 5.25 µM. For the same compound, the GI50 (SF-295 CNS) was 15.1 µM, the TGI (SF-295 CNS) was 28.6 µM and the GI50 (MALME-3M melanoma) was 2.04 µM. For the same compound, the TGI (MALME-3M melanoma) was 3.83 µM, the GI50 (U251 CNS) was 2.14 µM and the TGI (U251 CNS) was 5.21 µM. It also gave a GI50 (MOLT-4 leukemia) of 2.42 µM, a TGI (MOLT-4 leukemia) of 5.66 µM and a GI50 (LOX IMVI melanoma) of 1.55 µM. For the same compound, the TGI (LOX IMVI melanoma) was 2.96 µM, the GI50 (T-47D breast) was 1.79 µM and the TGI (T-47D breast) was 6.08 µM. It also gave a GI50 (EKVX NSCLC) of 2.71 µM, a TGI (EKVX NSCLC) of 12.1 µM and a GI50 (NCI-H226 lung) of 2.56 µM. It also gave a TGI (NCI-H226 lung) of 5.18 µM, a GI50 (SN12C renal) of 4.09 µM and a TGI (SN12C renal) of 12.5 µM. It also gave a GI50 (HCT-15 colon) of 1.95 µM, a TGI (HCT-15 colon) of 6.5 µM and a GI50 (HT29 colon) of 2.04 µM. It also gave a TGI (HT29 colon) of 3.75 µM, a GI50 (MDA-MB-435) of 2.72 µM and a TGI (MDA-MB-435) of 7.47 µM.

`Oc1ccc(N=Cc2ccc(C=Nc3ccc(O)cc3)cc2)cc1` gave a TGI (SNB-19 CNS) of 31.6 µM, a TGI (HS 578T breast) of 60.1 µM and a TGI (ACHN renal) of 26 µM. The TGI (CAKI-1 renal) was 35.1 µM, the TGI (MDA-MB-231 breast) was 27.7 µM and the TGI (OVCAR-3 ovarian) was 32.6 µM. For the same compound, the TGI (SF-539 CNS) was 28.6 µM, the TGI (M14 melanoma) was 34.5 µM and the TGI (SK-OV-3 ovarian) was 32.4 µM. For the same compound, the TGI (SNB-75 CNS) was 41.5 µM, the TGI (UO-31 renal) was 34 µM and the TGI (RPMI-8226 leukemia) was 81.6 µM. The TGI (DU-145 prostate) was 32.4 µM, the TGI (UACC-257 melanoma) was 32.4 µM and the TGI (MCF7 breast) was greater than 100 µM. It also gave a TGI (HOP-62 NSCLC) of 37.1 µM, a TGI (OVCAR-4 ovarian) of 29.6 µM and a TGI (786-0 renal) of 31.4 µM. The TGI (SK-MEL-2 melanoma) was 49.9 µM, the TGI (COLO 205 colon) was 39.2 µM and the TGI (KM12 colon) was 33.3 µM. For the same compound, the TGI (A498 renal) was 94.2 µM, the TGI (IGROV1 ovarian) was 39 µM and the TGI (HCT-116 colon) was 36.8 µM. For the same compound, the TGI (SK-MEL-28 melanoma) was 37.3 µM, the TGI (SW-620 colon) was 45.8 µM and the TGI (NCI-H23 lung) was 34.8 µM. It also gave a TGI (RXF 393 renal) of 34.9 µM, a TGI (TK-10 renal) of 34 µM and a TGI (PC-3 prostate) of 33 µM. It also gave a TGI (SF-268 CNS) of 30.8 µM, a TGI (NCI/ADR-RES ovarian) of 34.2 µM and a TGI (SK-MEL-5 melanoma) of 29.8 µM. For the same compound, the TGI (CCRF-CEM leukemia) was 30.7 µM, the TGI (BT-549 breast) was 33.8 µM and the TGI (A549 NSCLC) was 38.4 µM. It also gave a TGI (UACC-62 melanoma) of 25.5 µM, a TGI (K-562 leukemia) of 40.4 µM and a TGI (OVCAR-8 ovarian) of 29.3 µM. The TGI (SR leukemia) was 25.9 µM, the TGI (OVCAR-5 ovarian) was 38.7 µM and the TGI (HOP-92 NSCLC) was 62.7 µM. The TGI (NCI-H460 lung) was 72.7 µM, the TGI (SF-295 CNS) was 32.3 µM and the TGI (MALME-3M melanoma) was 34.4 µM. For the same compound, the TGI (NCI-H522 lung) was 59.9 µM, the TGI (U251 CNS) was 27.6 µM and the TGI (MOLT-4 leukemia) was 20 µM. For the same compound, the TGI (LOX IMVI melanoma) was 41.4 µM, the TGI (T-47D breast) was greater than 100 µM and the TGI (EKVX NSCLC) was 83.6 µM. The TGI (NCI-H226 lung) was 29.5 µM, the TGI (SN12C renal) was 28.5 µM and the TGI (HCT-15 colon) was 29.1 µM. For the same compound, the TGI (HT29 colon) was 89.4 µM and the TGI (MDA-MB-435) was 32.7 µM.
